In the METLIN SMRT retention time set (Domingo-Almenara et al. 2019):

Experiment: gradient 5% acetonitrile 3 min, to 50% in 2 min, to 85% in 15 min, held 3 min, 100 µL/min
Settings: column: Zorbax Extend-C18 2.1 x 50 mm; eluents: water / acetonitrile, 0.1% formic acid
Procedure, shortened: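 Each retention time is based on an adduct peak selected computationally and verified by manual inspection. Measurements used HPLC–quadrupole time-of-flight mass spectrometry in positive and negative ionization mode on mixtures of ~100 pure standards. Chromatography ran on a Zorbax Extend-C18 column (2.1 × 50 mm, 1.8 μm) at 100 μL/min with water and acetonitrile, each containing 0.1% formic acid, and dead and dwell volumes of 40 μL and 900 μL.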

Compound | RP-LC retention time [s]
O=C(NC1(c2nc(-c3cccnc3)no2)CCCCC1)c1cc(C2CC2)[nH]n1 | 700
O=C(NCc1ccc(C(F)(F)F)cc1)C1CCCN(c2nccnc2Sc2ccccc2)C1 (centres undefined) | 1140
O=C(Cn1c(=O)cc(-c2nc(C3CC3)no2)c2ccccc21)NCc1ccc(Cl)cc1 | 979
COc1ccc(C2(C(=O)N3CCC([C@H]4[C@@H](OC)C(=O)N4C(C)C)CC3)CC2)cc1 | 776
CC1(C(=O)NCc2ccccc2)CN(S(=O)(=O)c2ccccc2)CC(=O)N1C1CCCCC1 (centres undefined) | 992
COc1ccc(-c2nnc(N3CCC(C(=O)NC4CCCCC4)CC3)o2)cc1 | 811
Cc1oc(-c2ccccc2)nc1Cc1noc(-c2ccncc2)n1 | 920
CCCCc1nn2c(=O)cc(CN3CCN(c4ncccn4)CC3)nc2s1 | 604
CCS(=O)(=O)N1CC(=O)N(c2ccc(Cl)cc2)C(C)(C(=O)NC2CCCCCCC2)C1 (centres undefined) | 993
O=C1CCCN1Cc1noc(-c2ccccc2Cl)n1 | 770
CN1CCN(C(=O)c2ccc(CN3CCN(Cc4ccc(F)cc4)C(=O)C3=O)cc2)CC1 | 592
CCOC(=O)c1c(N2C(=O)C3C4C=CC(O4)C3C2=O)sc2c1CCCC2 (centres undefined) | 872
CCN1CCCn2cc(S(=O)(=O)NCc3ccc(OC)cc3)cc2C1=O | 698
CCOC(=O)C1CCCN(S(=O)(=O)c2ccc(Cl)c(-c3nnc(-c4ccccc4)o3)c2)C1 (centres undefined) | 1120
COc1ccc(C2(C(=O)N3CCCC(CO)CCNC(=O)CC3)CC2)cc1 (centres undefined) | 622
COc1ccccc1N1CCN(C(=O)c2csc3nc(-c4ccc(F)cc4)cn23)CC1 | 879
Cc1ccc(CNC(=O)N2CCC(C(=O)NCc3csc(C)n3)CC2)cc1 | 661
Nc1cc(C2CCN(C(=O)Cc3ccccc3F)CC2)no1 | 676
O=C(NCc1cccc(C(F)(F)F)c1)C1CCN(c2cnc3nccnc3c2)CC1 | 754

Compound | RP-LC retention time [s]
CN(C)C(CNC(=O)C(=O)NCCC1=CCCCC1)c1ccsc1 (centres undefined) | 590
CCOc1ccccc1NC(=O)C1CN(S(C)(=O)=O)CC12CCCCC2 (centres undefined) | 682
CCc1ccc(CNC(=O)C2CCN(c3ncccc3S(=O)(=O)N3CCCCC3)CC2)cc1 | 1040
OC(CNCC(O)C1CCc2cc(F)ccc2O1)C1CCc2cc(F)ccc2O1 (centres undefined) | 744
Cc1ccc(-c2cn(CC(=O)N3CCN(c4ccc(C)cc4)CC3)c(=O)o2)cc1 | 975
O=C(c1cccs1)N1CCN(c2ccc(=O)n(-c3ccc(Cl)cc3)n2)CC1 | 834
CC(C)CC(=O)N1CCCC(c2nc(CNC(=O)C(C)C)cs2)C1 (centres undefined) | 705
O=C(NCC1CCCO1)N1CCCn2nc(-c3cccc(Cl)c3)cc2C1 (centres undefined) | 792
O=S(=O)(c1cc(-c2nnc(C3CCC3)o2)co1)N1CCN(c2ccc(F)cc2)CC1 | 1250
Cc1cccc(N2C(=O)CN(CCc3ccccc3F)[C@H]3CS(=O)(=O)C[C@H]32)c1 | 840
CC1CCN(C(=O)C2=NN(Cc3cccc(F)c3)c3ccccc3S2(=O)=O)CC1 | 1010
COc1ccc(N2CC(c3noc(-c4cc(OC)cc(OC)c4)n3)CC2=O)cc1 (centres undefined) | 959
Cc1ccnc(N2CCCC(C(=O)N3CCC(C(N)=O)(N4CCCCC4)CC3)C2)n1 (centres undefined) | 542
CCn1ccc(C(=O)N2CCC(N3C(=O)C(O)C34CCCCC4)CC2)n1 (centres undefined) | 603
CCOc1ccc(C2c3[nH]c4ccccc4c3CCN2C(=O)Cc2cccs2)cc1 (centres undefined) | 1190
CC1CCN(c2cc(-n3cnc(C(=O)N4CCOCC4)c3)ncn2)CC1 | 750
CCNc1ncnc2sc3c(c12)CCN(Cc1ccncc1)C3 | 659
CCOC(=O)c1c(C)[nH]c(C(=O)N2CCC(CC(=O)NCc3ccccc3Cl)CC2)c1C | 813
Cc1[nH]c(C(=O)N2CCC(CC(=O)NC3CCCCCC3)CC2)c(C)c1C | 872

The remaining lines, values ahead:

RP-LC retention time [s] | Compound
911 | CC(C)c1cccc(Nc2nc3ccncc3n(Cc3ccccc3)c2=O)c1
840 | COc1cccc(CNC(=O)Nc2cc3c(cc2Oc2ccccc2)n(C)c(=O)n3C)c1
793 | CN1C(=O)c2cc(C(=O)NCc3cccc(Cl)c3)nn2CC1(C)C(=O)NC1CCCCC1 (centres undefined)
973 | CCOc1ccc2c(n1)CCN(C(=O)Nc1ccccc1OCC)C2
873 | CSc1ccc(NC(=O)NC2CCN(c3ccc(F)c(C)c3)C2=O)cc1 (centres undefined)
1120 | CC(C)c1ccc(NC(=O)Cn2c(=O)cc(-c3nc(C4CC4)no3)c3ccccc32)cc1
1280 | Cc1cccc(-c2nc(Cn3nnc(-c4nc(-c5ccccc5)no4)c3C)c(C)o2)c1
1110 | Cc1ccccc1-c1nc(-c2ccc3c(c2)oc(=O)n3C)no1
950 | COc1ccc(-c2nn(CCCC(=O)NCCc3ccc(C)cc3)c(=O)c3noc(C)c23)cc1
692 | COc1ccccc1NC(=O)Nc1c(-c2ccc(F)cc2)nc2ccccn12
555 | CCn1nccc1C(=O)N1CCC(c2nc3ccncc3n2CC(C)C)C1 (centres undefined)
862 | O=C(Nc1cc(Cl)ccc1Cl)C1CN(C(=O)c2ccc(F)c(F)c2)C1
913 | Cc1ccc(NC(=O)/C=C/c2ccccc2)c(C)c1
808 | CSc1ccc(-c2nc3cc(C)ccn3c2Nc2ccc(C)cc2)cc1
895 | Cc1cccc(C(=O)N2CCc3cc(CNC(=O)c4cc(-c5cccs5)[nH]n4)ccc32)c1
803 | CCOc1ccc(N2CC(c3nnc(NC(=O)c4ccc(Cl)cc4)o3)CC2=O)cc1 (centres undefined)
647 | COc1ccc(C(=O)CSc2nc3ccccc3[nH]2)cc1
857 | Cc1sc(NC(=O)c2ccccc2)nc1-c1ccc2c(c1)NC(=O)CO2
659 | COc1ccc(NC(=O)Cn2c(C(C)C)nc3c(c2=O)CCN(Cc2ccccc2)C3)cc1OC
758 | CCOc1cc(=O)n2c(c1C(=O)Nc1cc(Cl)c(OC)cc1OC)CCCC2
810 | O=C(CSc1nc(N2CCCCC2)nc2ccccc12)Nc1ccc(Br)cc1
1060 | COc1ccc(-c2csc(C)n2)cc1S(=O)(=O)N1CCN(c2ccccc2)CC1
952 | Cc1cc(C(F)F)n2nc(C(=O)Nc3ccc(C(C)C)cc3)nc2n1
907 | CCC1Oc2ccc(S(=O)(=O)N3CCC(C(=O)Nc4ccccc4Cl)CC3)cc2NC1=O (centres undefined)
828 | CCN(CC)C(=O)c1c(C)sc2ccn(Cc3ccc(F)cc3)c(=O)c12
921 | COc1cccc2sc(NC(=O)c3coc4ccccc4c3=O)nc12

RP-LC retention time [s] | Compound
929 | COCC(=O)N(CC(=O)N1CCc2sccc2C1COc1ccc(C)cc1C)CC1CCCO1 (centres undefined)
633 | O=C(Nc1cc(F)ccc1Cl)c1ccc2c(c1)nnn2CCN1CCOCC1
843 | COc1c(C)cnc(Cn2ccn3nc(-c4ccc(F)cc4)c(CO)c3c2=O)c1C
877 | Cc1nc2ccc3nc(NC(=O)COc4ccccc4F)sc3c2s1
844 | COc1ccc(CC(=O)Nc2ccc3c(c2)Sc2ncccc2C(=O)N3C(C)C)cc1
790 | CCN1C(=O)CCc2cc(NS(=O)(=O)c3ccccc3C(=O)OC)ccc21
1160 | CCc1nc2cc(-c3noc(Cc4ccc(C)cc4)n3)ccc2o1
852 | O=c1oc2cc(O)ccc2cc1-c1ccc(F)cc1
721 | CCc1ccc(NS(=O)(=O)c2cc(-c3[nH]ncc3C(=O)N3CCOCC3)oc2C)cc1
1030 | Cc1ccc(C(=O)Nc2cccn3nc(C(C)C)nc23)cc1C
1010 | CCCOc1ccc(-c2nc(N3CCC(C)CC3)c3ccccc3n2)cc1
570 | O=C(Cn1cnc(-c2cccs2)cc1=O)NCc1nc2ccccc2[nH]1
798 | COc1ccc(Cl)cc1NC(=O)C1(C)Oc2cccnc2NC1=O (centres undefined)
823 | COc1ccc2nc(C(=O)NCc3cc(F)ccc3F)cn2n1
598 | Cc1ccccc1C(=O)NCc1ccc2c(c1)ncn2C(C)C
692 | Cc1cnc(-c2ccncc2)n1CC1CN(Cc2cccn2C)C1
1130 | Cc1ccc(-c2noc(Cc3nnc(-c4cccc(C)c4)o3)n2)cc1
1260 | O=C(COc1cccc(Cl)c1)Nc1nc(-c2ccc(Br)cc2)cs1
819 | CCn1ccc(C(=O)N2CC(Oc3ccc(-c4nc(C)no4)cc3)C2)n1
831 | COc1ccc(-c2nnc(SCc3cc(=O)n4c(C)csc4n3)o2)cc1
582 | Cc1ccc2c(Nc3ccc(S(N)(=O)=O)cc3)c(C(=O)N3CCC(C)CC3)cnc2n1
932 | CCOC(=O)c1cccc(N2C=C(C(=O)OC)S(=O)(=O)c3cc(F)ccc32)c1
621 | Cc1cc(C(N)=O)c2cccc(Cl)c2n1
982 | CCOc1ccc(C(=O)N2CCCC2c2nc(-c3ccc(OC)cc3)no2)cc1OCC (centres undefined)
666 | CC1CCCN(c2ccc(NC(=O)c3cccs3)cc2C(=O)O)C1 (centres undefined)
